The text below walks through data of patent US20250032450A1, “[…] INHALABLE FORMULATIONS” (Cybin UK Ltd., priority 2021, published 2025).

≈ marks a conversion by molar mass, not a printed value. Like-named read-outs stand apart in the source and are kept apart here.

The conditions of data set [1]: in water; estimated; cited from earlier work.
The conditions of data set [2]: HMDB; cited from earlier work.
The nature of data set [3]: N,N-Dimethyltryptamine pH-solubility in 0.5M Britton Robinson buffer. Type of data set: physicochemical. The note with it: aqueous buffer, thermodynamic from solid, read-out: solubility, Real data. The procedure: Prior to adding N,N-dimethyltryptamine, a quantity of NaOH was added to the BR buffer as required to ensure the required pH. The total volume of BR buffer plus required amount of NaOH was 5 ml for each pH tested (pH 4, 5, 6, 7, 8, 9 & 10).

On to `CN(C)CCc1c[nH]c2cccc(OP(=O)(O)O)c12` [psilocybin, [3-(2-Dimethylaminoethyl)-1H-indol-4-yl] dihydrogen phosphate], for which, in data set [1], the “pKa of terminal phosphate oxygen atom (first value)” value is listed as 1.3 and the “pKa of terminal phosphate oxygen atom (second value)” value is reported as 6.5.

One may read the solubility as the concentration that dissolves in the medium under given conditions. Take `CN(C)CCc1c[nH]c2ccccc12` [N,N-Dimethyltryptamine]: the degradation in solution entry in data set [2] was “degrades relatively quickly in solution”. The solubility was determined as 105 mg/mL (≈ 556 mM) in data set [3] (pH 4.05, 25° C.); 126 mg/mL (≈ 671 mM) in data set [3] (pH 4.98, 25° C.); 92.6 mg/mL (≈ 492 mM) in data set [3] (pH 6.05, 25° C.); 68.6 mg/mL (≈ 364 mM) in data set [3] (pH 7.08, 25° C.); 88.4 mg/mL (≈ 470 mM) in data set [3] (pH 8.07, 25° C.); 17.1 mg/mL (≈ 90.8 mM) in data set [3] (pH 8.91, 25° C.). Moreover, the solubility in data set [3] (pH 10.01, 25° C.) is 1.14 mg/mL (≈ 6.06 mM).
